Experiments:
[1] = Weight gain, food intake and body composition of genetically obese (ob/ob) mice dosed for 28 days; type: in vivo, female C57Bl/6 genetically obese (ob/ob) mice
Method: (§1) Remale C57Bl/6 genetically obese (ob/ob) or normal lean mice were fed on a powdered breeders diet and given the compounds either once daily by oral gavage, or by admixture with the diet for 28 days. Fifty parts per million (ppm) in the diet is equivalent to a dose level of about eight to ten )obese mie) or twelve to thirteen (normal mice) milligrams per kilogram body weight per dya. Body lipid content and lean body mass were determined gravimetrically. There were seven or eight mice in each treatment group and results are expressed as a percentage of values for an untreated group of similar size.

[2] = Weight gain and food conversion efficiency of broiler chicken, 30-56 days; type: in vivo, Marshall sexed broiler chicken; conditions: 3 ppm in feed
Description: Marshall sexed broiler chicken, 30 days old, were fed on a basal feed, which was designed as a practical broiler and finisher feed. Additive (see below) was substituted for maize in tis diet. The supplemented diets were fed until the birds were 56 days old.

[3] = Pup weight and rectal temperature after administration to pregnant rats; type: in vivo, Sprague-Dawley rats; conditions: days 2-20 of gestation, mean ± S.E.M.
Method: Female Sprague-Dawley rates were mated, fed on powdered rodent diet and given compound P1 as a dietary admixture (150 ppm) from days 2-20 of gestation. Thereafter no further compound was given. Parturition occurred on day 22. The pups were weight 24 hours after birth. 48 hours after birth 7 pups were removed at random from 3 control and 3 treated litters, placed 29° C. and rectal temperature was monitored. Results are expressed as means of the number of values shown in parentheses±S.E.M.

[4] = Weight gain, food intake and body composition of normal lean mice dosed for 28 days; type: in vivo, female C57Bl/6 normal lean mice
Method: as §1

## COC(=O)c1ccc(CC(C)NCC(O)c2ccccc2)cc1 (centres unmarked) [Preparation P1, N-[2-(4-carbomethoxyphenyl)-1-methylethyl]-2-hydroxy-2-phenylethanamine]
[1]; 50 ppm in diet
  Amt. of Lipid: 103 % of control values
  Food Intake: 119 % of control values
  Gain/Intake: 168 % of control values
  Lean Body mass: 111 % of control values
  Weight Gain: 200 % of control values
[2]; female, control 1309
  Weight gain 30-56 days: 1326 g
[2]; female, control .329
  Food conversion efficiency 30-56 days: .333
[2]; male, control 1644
  Weight gain 30-56 days: 1784 g
[2]; male, control .367
  Food conversion efficiency 30-56 days: .385
[3]; 150 ppm in diet of dams, 24 hours after birth, n=52, control 5.3 ± 0.1
  Weight, All pups: 5.9 ± 0.1 g
[3]; 150 ppm in diet of dams, n=7, control 5.0 ± 0.1
  Weight, Pups monitored for body temperature: 6.6 ± 0.4 g
[3]; pups 48 hours after birth, dams 150 ppm in diet, n=7, control 2.76 ± 0.16
  Drop in rectal temperature after 10 mins @ 29° C.: 1.98 ± 0.06
[3]; pups 48 hours after birth, dams 150 ppm in diet, n=7, control 29.4 ± 0.4
  Rectal temperature after 10 mins @ 29° C.: 31.2 ± 0.5

## COC(=O)c1ccc(CC(C)NCC(O)c2ccc(O)c(CO)c2)cc1 [Preparation P2, N-[2-(4-carbomethoxyphenyl)-L-methylethyl]-2-hydroxy-2-(4-hydroxy-3-hydroxymethylphenyl) ethanamine]
[1]; 10 mg/kg po once daily
  Amt. of Lipid: 77 % of control values
  Food Intake: 111 % of control values
  Gain/Intake: 70 % of control values
  Lean Body mass: 113 % of control values
  Weight Gain: 78 % of control values
[1]; 36 ppm in diet
  Amt. of Lipid: 101 % of control values
  Food Intake: 112 % of control values
  Gain/Intake: 99 % of control values
  Lean Body mass: 112 % of control values
  Weight Gain: 111 % of control values
[4]; 75 ppm in diet
  Amt. of Lipid: 78 % of control values
  Food Intake: 107 % of control values
  Gain/Intake: 120 % of control values
  Lean Body mass: 107 % of control values
  Weight Gain: 128 % of control values

## COC(=O)c1ccc(CC(C)NCC(O)c2ccc(O)c(CO)c2)cc1 (centres unmarked) [Preparation P3]
[4]; 20 mg/kg po once daily
  Amt. of Lipid: 69 % of control values
  Gain/Intake: 90 % of control values
  Lean Body mass: 113 % of control values
  Weight Gain: 171 % of control values

## COC(=O)COc1ccc(CC(C)NCC(O)c2cccc(Cl)c2)cc1 (centres unmarked) [Preparation P4, N-[2-(4-carbomethoxymethoxyphenyl)-1-methylethl]-2-hydroxy-2-(3-chlorophenyl)ethanamine]
[1]; 0.46 ppm in diet
  Amt. of Lipid: 105 % of control values
  Food Intake: 116 % of control values
  Gain/Intake: 124 % of control values
  Lean Body mass: 107 % of control values
  Weight Gain: 143 % of control values

## COC(=O)COc1ccc(CC(C)NCC(O)c2cc(Cl)c(N)c(Cl)c2)cc1 (centres unmarked) [Preparation P5, N-[2-(4-carbomethoxymethoxyphenyl)-1-methylethyl]-2-hydroxy-2-(4-amino-3,5-dichlorophenyl)ethanamine]
[4]; 50 ppm in diet
  Food Intake: 108 % of control values
  Gain/Intake: 116 % of control values
  Lean Body mass: 108 % of control values
  Weight Gain: 125 % of control values
